Source: PubChem BioAssay AID1963875 (Molecular Pharmacology Branch, DTP, NCI, 2024)
pIC50: −log10 of the molar value.

System: KRAS-mutant PDC complex spheroid viability
Experiment: Anticancer human tumor 186277-243-T-J2-PDC patient-derived colon adenocarcinoma cell line growth inhibition [KRAS2]
Details: for pIC50: curve of first compound; for viability, T/C: stronger effect = lower value
Text: Multicellular complex tumor spheroid response to RAS pathway inhibitors in combination with a targeted agents in patient-derived cell lines with oncogenic KRAS variants from multiple cancer types
A high-throughput screen of multi-cell type tumor spheroids was designed to identify active combinations of targeted small molecules and KRAS pathway inhibitors. Complex spheroids include a stromal component modeled by human endothelial cells (HUVEC) and fibroblasts modeled by human mesenchymal stem cells (MSCs). The concentration ranges selected for each drug and investigational agent were based upon clinically achievable concentrations if the clinical Cmax of the agent was known.
Compounds. The drugs and investigational agents: BI-3406 (NSC825286), BAY-293 (NSC824723), batoprotafib (TNO155; NSC825523), sotorasib (AMG 510; NSC818433), MRTX1257 (NSC819558), elimusertib (BAY 1895344; NSC800525), molibresib (GSK525762; NSC774829), temuterkib (LY3214996; NSC803410), venetoclax (NSC766270), alisertib (NSC759677), olaparib (NSC753686), talazoparib (NSC767125), erdafitinib (NSC781556), ipatasertib (NSC767898), cabozantinib (NSC761068), nintedanib (NSC756659), abemaciclib (NSC768073), docetaxel (NSC628503), trametinib (NSC758246), and sapanisertib (NSC764658) were obtained from the National Cancer Institute (NCI) Developmental Therapeutics Program Chemical Repository. The FDA-approved anticancer drug set is available from the Developmental Therapeutics Program. […] The stock solutions were prepared in dimethyl sulfoxide (DMSO, Sigma-Aldrich, St. Louis, MO, cat. D2650) at 800-fold the tested concentration and stored at -70 degrees C prior to their use. All drugs and investigational agents were tested over a range starting from a high concentration at or near the clinical Cmax and decreasing in half-log increments. If the clinical Cmax for an agent had not been determined, the highest concentration tested was 10 microM.
Cell Culture. All cells were maintained in an incubator at 37 degrees C and 5% CO2 with 95% humidity. The PDC lines were cultured according to standard operating procedures established by the NCI PDMR (https://pdmr.cancer.gov/sops/default.htm). Briefly, all PDCs were thawed and cultured in Matrigel-coated flasks prepared with a working solution of 1X Ham's F-12 nutrient mix, without supplementation (Invitrogen, Waltham, MA, cat. 11765054), 100 U/mL penicillin-streptomycin (Invitrogen, cat. 15140122), and 2.5% Matrigel (Corning Inc., Corning, NY, cat. 354248) for the first three passages. All PDCs were cultured in complete DMEM/F-12 media containing advanced DMEM/F-12 (Invitrogen, cat. 12634028), 4.9% defined fetal bovine serum, heat inactivated (HyClone Laboratories Inc., Logan, UT, cat. SH30070.03HI), 389 ng/mL hydrocortisone (Sigma-Aldrich, cat. H4001), 9.7 ng/mL human EGF recombinant protein (Invitrogen, cat. PHG0313), 23.4 microg/mL adenine (Sigma-Aldrich, cat. A2786), 97.3 U/mL penicillin-streptomycin (Invitrogen, cat. 15140122), 1.9 mM L-glutamine (Invitrogen, cat. 25030081), and 9.7 microM Y-27632 dihydrochloride (Tocris Bioscience, Bristol, United Kingdom, cat. 1254). The PDCs were cultured in complete DMEM/F12 media without 9.7 microM Y-27632 dihydrochloride for at least two passages prior to the screen. The established cell line HOP-62 was cultured in RPMI 1640 medium, HEPES (Invitrogen, cat. 22400105) with 10% defined fetal bovine serum (HyClone Laboratories Inc., cat. SH30070.03) and 2 mM L-glutamine (Invitrogen, cat. 25030081). The pooled donor HUVEC were cultured in endothelial cell growth medium 2 (PromoCell, Heidelberg, Germany, cat. C-22011) and the hMSC were cultured in mesenchymal stem cell growth medium 2 (PromoCell, cat. C-28009). For all experiments, HUVEC and hMSC were used at passages </=5, while the malignant cell lines were used at passages </=15. […]

[1] = second compound 0.1 µM, first compound 0.000316 µM
[2] = second compound 0.1 µM, first compound 0.001 µM
[3] = second compound 0.1 µM, first compound 0.00316 µM
[4] = second compound 0.1 µM, first compound 0.01 µM
[5] = second compound 0.1 µM, first compound 0.0316 µM
[6] = second compound 0.316 µM, first compound 0.000316 µM
[7] = second compound 0.316 µM, first compound 0.001 µM
[8] = second compound 0.316 µM, first compound 0.00316 µM
[9] = second compound 0.316 µM, first compound 0.01 µM
[10] = second compound 0.316 µM, first compound 0.0316 µM
[11] = second compound 1 µM, first compound 0.000316 µM
[12] = second compound 1 µM, first compound 0.001 µM
[13] = second compound 1 µM, first compound 0.00316 µM
[14] = second compound 1 µM, first compound 0.01 µM
[15] = second compound 1 µM, first compound 0.0316 µM
[16] = second compound 3.16 µM, first compound 0.000316 µM
[17] = second compound 3.16 µM, first compound 0.001 µM
[18] = second compound 3.16 µM, first compound 0.00316 µM
[19] = second compound 3.16 µM, first compound 0.01 µM
[20] = second compound 3.16 µM, first compound 0.0316 µM
[21] = second compound 10 µM, first compound 0.000316 µM
[22] = second compound 10 µM, first compound 0.001 µM
[23] = second compound 10 µM, first compound 0.00316 µM
[24] = second compound 10 µM, first compound 0.01 µM
[25] = second compound 10 µM, first compound 0.0316 µM
[26] = second compound 0.1 µM, first compound 0.1 µM
[27] = second compound 0.316 µM, first compound 0.1 µM
[28] = second compound 1 µM, first compound 0.1 µM
[29] = second compound 3.16 µM, first compound 0.1 µM
[30] = second compound 10 µM, first compound 0.1 µM
[31] = second compound 0.1 µM, first compound 0.316 µM
[32] = second compound 0.1 µM, first compound 1 µM
[33] = second compound 0.1 µM, first compound 3.16 µM
[34] = second compound 0.1 µM, first compound 10 µM
[35] = second compound 0.316 µM, first compound 0.316 µM
[36] = second compound 0.316 µM, first compound 1 µM
[37] = second compound 0.316 µM, first compound 3.16 µM
[38] = second compound 0.316 µM, first compound 10 µM
[39] = second compound 1 µM, first compound 0.316 µM
[40] = second compound 1 µM, first compound 1 µM
[41] = second compound 1 µM, first compound 3.16 µM
[42] = second compound 1 µM, first compound 10 µM
[43] = second compound 3.16 µM, first compound 0.316 µM
[44] = second compound 3.16 µM, first compound 1 µM
[45] = second compound 3.16 µM, first compound 3.16 µM
[46] = second compound 3.16 µM, first compound 10 µM
[47] = second compound 10 µM, first compound 0.316 µM
[48] = second compound 10 µM, first compound 1 µM
[49] = second compound 10 µM, first compound 3.16 µM
[50] = second compound 10 µM, first compound 10 µM
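Throughout, for viability, T/C: viability read after seven days of compound exposure; 100% = DMSO vehicle-treated spheroids so lower means less viable.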

CC(=O)Nc1cccc(-n2c(=O)n(C3CC3)c(=O)c3c(Nc4ccc(I)cc4F)n(C)c(=O)c(C)c32)c1 + C=CC(=O)N1CCN(c2nc(=O)n(-c3c(C)ccnc3C(C)C)c3nc(-c4c(O)cccc4F)c(F)cc23)C(C)C1
pIC50 (second compound 0.1 µM): 9.20
pIC50 (second compound 0.316 µM): 9.18
pIC50 (second compound 1 µM): 9.23
pIC50 (second compound 3.16 µM): 9.35
pIC50 (second compound 10 µM): 9.96
viability, T/C (second compound 0.1 µM, first compound 0.0001 µM): 99.2%
viability, T/C [1]: 96.3%
viability, T/C [2]: 18%
viability, T/C [3]: 8.67%
viability, T/C [4]: 2.97%
viability, T/C [5]: 1.31%
viability, T/C (second compound 0.316 µM, first compound 0.0001 µM): 100%
viability, T/C [6]: 99.7%
viability, T/C [7]: 21.9%
viability, T/C [8]: 9%
viability, T/C [9]: 3.1%
viability, T/C [10]: 1.46%
viability, T/C (second compound 1 µM, first compound 0.0001 µM): 111%
viability, T/C [11]: 86.7%
viability, T/C [12]: 17.4%
viability, T/C [13]: 7.6%
viability, T/C [14]: 4.82%
viability, T/C [15]: 1.76%
viability, T/C (second compound 3.16 µM, first compound 0.0001 µM): 90.9%
viability, T/C [16]: 65.8%
viability, T/C [17]: 11.9%
viability, T/C [18]: 9.32%
viability, T/C [19]: 2.47%
viability, T/C [20]: 1.47%
viability, T/C (second compound 10 µM, first compound 0.0001 µM): 53.6%
viability, T/C [21]: 9.73%
viability, T/C [22]: 3.83%
viability, T/C [23]: 4.23%
viability, T/C [24]: 0.78%
viability, T/C [25]: 0.43%

CC(C)n1nc(-c2ccc3oc(N)nc3c2)c2c(N)ncnc21 + C=CC(=O)N1CCN(c2nc(=O)n(-c3c(C)ccnc3C(C)C)c3nc(-c4c(O)cccc4F)c(F)cc23)C(C)C1
pIC50 (second compound 0.1 µM): 7.90
pIC50 (second compound 0.316 µM): 7.75
pIC50 (second compound 1 µM): 8.04
pIC50 (second compound 3.16 µM): 8.33
pIC50 (second compound 10 µM): > 9.50
viability, T/C [1]: 94.8%
viability, T/C [2]: 93.1%
viability, T/C [3]: 86.1%
viability, T/C [4]: 52.6%
viability, T/C [5]: 32.7%
viability, T/C [26]: 19.5%
viability, T/C [6]: 113%
viability, T/C [7]: 103%
viability, T/C [8]: 87.7%
viability, T/C [9]: 65.6%
viability, T/C [10]: 34.2%
viability, T/C [27]: 18.9%
viability, T/C [11]: 97.5%
viability, T/C [12]: 107%
viability, T/C [13]: 75.8%
viability, T/C [14]: 48.9%
viability, T/C [15]: 27.3%
viability, T/C [28]: 20.1%
viability, T/C [16]: 98%
viability, T/C [17]: 89.4%
viability, T/C [18]: 58.6%
viability, T/C [19]: 31.1%
viability, T/C [20]: 20.1%
viability, T/C [29]: 13.9%
viability, T/C [21]: 45.9%
viability, T/C [22]: 44.6%
viability, T/C [23]: 34.7%
viability, T/C [24]: 16.9%
viability, T/C [25]: 14.7%
viability, T/C [30]: 7.97%

COc1cc(Nc2ncc3c(n2)-c2ccc(Cl)cc2C(c2c(F)cccc2OC)=NC3)ccc1C(=O)O + C=CC(=O)N1CCN(c2nc(=O)n(-c3c(C)ccnc3C(C)C)c3nc(-c4c(O)cccc4F)c(F)cc23)C(C)C1
pIC50 (second compound 0.1 µM): > 7.50
pIC50 (second compound 0.316 µM): > 7.50
pIC50 (second compound 1 µM): > 7.50
pIC50 (second compound 3.16 µM): > 7.50
pIC50 (second compound 10 µM): > 7.50
viability, T/C [5]: 25.1%
viability, T/C [31]: 22.8%
viability, T/C [32]: 34%
viability, T/C [33]: 50.2%
viability, T/C [34]: 50.6%
viability, T/C [10]: 28.5%
viability, T/C [27]: 29.5%
viability, T/C [35]: 32.6%
viability, T/C [36]: 38.1%
viability, T/C [37]: 46.8%
viability, T/C [38]: 49.2%
viability, T/C [15]: 23.2%
viability, T/C [28]: 23.8%
viability, T/C [39]: 32.7%
viability, T/C [40]: 38.5%
viability, T/C [41]: 50.1%
viability, T/C [42]: 46.7%
viability, T/C [20]: 29.2%
viability, T/C [29]: 30.8%
viability, T/C [43]: 32.8%
viability, T/C [44]: 36.9%
viability, T/C [45]: 43%
viability, T/C [46]: 35.7%
viability, T/C [25]: 20.7%
viability, T/C [30]: 29.2%
viability, T/C [47]: 21.1%
viability, T/C [48]: 27.9%
viability, T/C [49]: 27.7%
viability, T/C [50]: 20.7%

COc1cc2nccc(Oc3ccc(NC(=O)C4(C(=O)Nc5ccc(F)cc5)CC4)cc3)c2cc1OC + C=CC(=O)N1CCN(c2nc(=O)n(-c3c(C)ccnc3C(C)C)c3nc(-c4c(O)cccc4F)c(F)cc23)C(C)C1
pIC50 (second compound 0.1 µM): 5.73
pIC50 (second compound 0.316 µM): 5.75
pIC50 (second compound 1 µM): 5.88
pIC50 (second compound 3.16 µM): 6.08
pIC50 (second compound 10 µM): 7.00
viability, T/C [5]: 95.2%
viability, T/C [26]: 94.8%
viability, T/C [31]: 100%
viability, T/C [32]: 93.7%
viability, T/C [33]: 13.1%
viability, T/C [34]: 15.4%
viability, T/C [10]: 93%
viability, T/C [27]: 85.5%
viability, T/C [35]: 98.2%
viability, T/C [36]: 86.1%
viability, T/C [37]: 12.3%
viability, T/C [38]: 14%
viability, T/C [15]: 98%
viability, T/C [28]: 92.4%
viability, T/C [39]: 101%
viability, T/C [40]: 61.8%
viability, T/C [41]: 12.4%
viability, T/C [42]: 13.7%
viability, T/C [20]: 94.5%
viability, T/C [29]: 103%
viability, T/C [43]: 91.2%
viability, T/C [44]: 41.8%
viability, T/C [45]: 9.95%
viability, T/C [46]: 11.2%
viability, T/C [25]: 49.9%
viability, T/C [30]: 52.7%
viability, T/C [47]: 32.3%
viability, T/C [48]: 9.14%
viability, T/C [49]: 2.99%
viability, T/C [50]: 3.53%
